Here are results for 3 compounds from US5990160A, “Use of tropolone derivatives as inhibitors of the enzyme inositol monophosphatase” (Gruppo Lepetit, SpA, priority 1995, dated 1999).

The target of data set [1] is T1, inositol monophosphatase (IMPase) (Bos taurus, UniProt P20456).
T1 sequence (P20456 1-277): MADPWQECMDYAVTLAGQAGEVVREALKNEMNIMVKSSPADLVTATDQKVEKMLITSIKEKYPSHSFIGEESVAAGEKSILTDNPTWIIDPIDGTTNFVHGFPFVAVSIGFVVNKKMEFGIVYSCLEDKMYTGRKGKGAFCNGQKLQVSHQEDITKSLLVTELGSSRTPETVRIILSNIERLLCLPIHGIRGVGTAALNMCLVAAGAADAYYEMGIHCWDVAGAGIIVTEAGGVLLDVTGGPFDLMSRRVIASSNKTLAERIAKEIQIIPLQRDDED
In words: Inhibition of inositol monophosphatase (IMPase) enzyme activity, liberated phosphate by molybdate coloration. It is filed as biochemical, animal. To be noted: 4 mM 2-glycerolphosphate, 5 μg/ml IMPase, 50 mM Tris-HCl pH 7.5, 2 mM magnesium chloride, 0.1 mM EGTA, 30 minutes; read-out: IC50 (molar amount of inhibitor required to inhibit the enzyme activity by 50%). An excerpt: For determining the activity of the compounds of formula I, IMPase with a purity higher than 90% as judged by SDS-PAGE (sodium dodecyl sulphate polyacrylamide gel electrophoresis) is purified as described in P. D. Pelton and A. J. Ganzhorn, Journal Biolog. Chem., 267, 1992, pp. 5916-5920. The enzyme can be purified from animal brain or from recombinant E. coli strains expressing animal IMPase. Although crude enzyme preparations can also be used, it is preferable to use purified enzyme. The purified enzyme routinely has a specific activity of 25 μmol of Pi/min/mg of protein as determined in a standard assay (P. V. Attwood et al., Biochem. Jour., 1988, 253, pp. 387-394) with 4 mM 2-glycerolphosphate as substrate.
The enzyme activity may be determined according to A. J. Ganzhorn and M. C. Chanal, Biochem., 1990, 29; the reaction mixture contains 50 mM Tris-HCl, pH 7.5, 2 mM magnesium chloride and 0.1 mM EGTA. Then, 5 μg/ml of enzyme IMPase and 4 mM of 2-glycerolphosphate substrate are added to the reaction mixture; alternatively, it is also possible to add the substrate directly into the reaction mixture, before adding the enzyme.
The reaction is considered terminated after 30 minutes from the addition of the substrate or the enzyme (depending on which one is added later); the liberated phosphate is determined by molybdate coloration (P. V. Attwood et al., Biochem. Jour., 1988, 253, pp. 387-394) at 350 nm with a Shimadzu spectrophotometer UV 2100.
The enzyme reaction is performed either in the absence or in the presence of various concentrations of the compounds of formula I, to determine the molar amount of inhibitor required to inhibit the enzyme activity by 50% (IC50).

The conditions of data set [2]: cited from earlier work.
The test system of a further data set is bipolar disorder / mania. To be noted: cited from earlier work.
The next data set deals with inositol monophosphatase. To be noted: cited from earlier work.

Entries after “also recorded” stand apart in the source; their conditions may differ.

For orientation: IC50 means the point on the concentration scale where inhibition reaches its midpoint. Consider `O=C(O)c1cc(O)c(O)c(=O)c(O)c1` [puberulic acid, 3,4,6-trihydroxy-5-oxo-1,3,6-cycloheptatriene-1-carboxylic acid], for which the half-maximal inhibitory concentration (IC50) in data set [1] is roughly 40 µM.
With `O=C1OC(=O)c2c1cc(O)c(O)c(O)c2=O` [puberulonic acid, 3,4,6-trihydroxy-5-oxo-1,3,6-cycloheptatriene-1,7-dicarboxylic acid anhydride], in data set [1], the IC50 was roughly 4 µM.
On to lithium, for which the half-inhibitory concentration (IC50) in data set [1] is roughly 1250 µM. The “structural lesions in kidney” value in data set [2] (after chronic lithium treatment, especially in patients who have experienced lithium toxicity) was “interstitial fibrosis, tubular atrophy and glomerular sclerosis”. In addition, in data set [2] (lithium therapy), the “adverse effects common to lithium therapy” value was “tremor, weight gain, diarrhea and skin rash; also recorded: transient leukocytosis; also recorded: can cause patients with a borderline thyroid reserve to become clinically hypothyroid; also recorded: can decompensate cardiac status due to shifts in fluids and electrolytes”. Also, the “occurrence of polyuria-polydipsia syndrome” value in data set [2] (lithium treatment) is recorded as “up to 60 % of treated patients”. Besides, the “time it takes to exert anti-manic effect” value in the data set on bipolar disorder / mania (acute bipolar disorder) was 7 to 10 days. Further, the “anti-manic and anti-depressive therapeutic effect” value in the data set with bipolar disorder / mania (preferably employed as lithium carbonate) is reported as “alleviating manic symptoms, normalizing the mood of manic patients”. Further, in the data set with inositol monophosphatase, the “inhibition of inositol monophosphatase activity” value is on record as “inhibits the activity of said enzyme”.
